What all share (test): cells
What all share (assay type): cell-based
What all share (parameters): Percent inhibition compared to vehicle: concentration or dose not given beside the values

For assay [1], the system named is MCF-7 cells stably expressing EF1 HA-ER-α E380Q. Particulars: for Percent inhibition compared to vehicle: 5-Day Incubation; for Efficacy (Emax): Day 5 relative to Day 0; for EC50: read-out: Potency (EC50; nM). An outline of the steps: (§1)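 MCF-7 lines stably expressing N-terminal HA-tagged wild-type or mutant ER-α, under a high-expressing EF1 or a low-to-moderate UbC promoter, plus an empty-vector control, grown in phenol-free RPMI with 10% CSS. Compound given at 10 μM to 5 pM final for 5 days. CellTiter-Glo luminescence minus background, divided by the time-zero reading, gave relative proliferation.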

Assay [2] has as its system MCF-7 cells stably expressing EF1 HA-ER-α L536R. As to conditions: for Percent inhibition compared to vehicle: 5-Day Incubation; for Efficacy (Emax): Day 5 relative to Day 0; for EC50: read-out: Potency (EC50; nM). A digest of the protocol: (§2)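 Lentivirally transduced MCF-7 (HA-ER-α WT/mutant under EF1 or UbC; empty vector control); phenol-free RPMI + 10% CSS; 10-pt 1:5 dilution, 10 μM–5 pM final; 5 d; CellTiter-Glo; (RLU − background)/RLU T0.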

Assay [3] has as its system MCF-7 cells stably expressing UbC HA-ER-α E380Q. Particulars: for Percent inhibition compared to vehicle: 5-Day Incubation; for Efficacy (Emax): Day 5 relative to Day 0. An outline of the steps:
as §2

In assay [4] the test system is MCF-7 cells stably expressing UbC HA-ER-α L536R. As to conditions: for Efficacy (Emax): Day 5 relative to Day 0; for Percent inhibition compared to vehicle: 5-Day Incubation. A digest of the protocol: as §1
The test system of assay [5] is MCF-7 cells stably expressing UbC HA-ER-α Y537N. Particulars: for Percent inhibition compared to vehicle: 5-Day Incubation; for Efficacy (Emax): Day 5 relative to Day 0. An outline of the steps: as §1
[6] abbreviates: EF1 HA-ER-α E380Q, Agonist Mode, −E2.
Setting [7] is: EF1 HA-ER-α E380Q, Antagonist Mode, +E2.
[8] abbreviates: EF1 HA-ER-α L536R, Agonist Mode, −E2.
Setting [9] is: EF1 HA-ER-α L536R, Antagonist Mode, +E2.
[10] abbreviates: UbC HA-ER-α E380Q, Agonist Mode, −E2.
Where [11] appears, read: UbC HA-ER-α E380Q, Antagonist Mode, +E2.
Where [12] appears, read: UbC HA-ER-α L536R, Agonist Mode, −E2.
Where [13] appears, read: UbC HA-ER-α L536R, Antagonist Mode, +E2.
Setting [14] is: UbC HA-ER-α Y537N, Agonist Mode, −E2.
The mark [15] stands for this setting: UbC HA-ER-α Y537N, Antagonist Mode, +E2.

What is called EC50 is the concentration needed to bring the measured effect to its halfway point.

Like-named read-outs stand apart in the source and are kept apart here.

With `CCC(=C(c1ccc(O)cc1)c1ccc(OCCN(C)C)cc1)c1ccccc1` [4-Hydroxytamoxifen], the “Percent inhibition compared to vehicle” value came to 21% in assay [1] (setting [6]); 19% in assay [1] (setting [7]); 43% in assay [2] (setting [8]); 47% in assay [2] (setting [9]); 44% in assay [3] (setting [10]); 66% in assay [3] (setting [11]). The “Percent inhibition compared to vehicle” value is given as 61% in assay [4] (setting [13]), 46% in assay [5] (setting [14]) and 65% in assay [5] (setting [15]). Besides, the “Efficacy (Emax)” value in assay [1] (setting [6]) came out at 5.17 ± 0.26; in assay [1] (setting [7]), 5.03 ± 0.85; in assay [2] (setting [8]) it was 3.91 ± 0.04; in assay [2] (setting [9]) it was 3.65 ± 0.29; in assay [4] (setting [12]), 2.26 ± 0.36; in assay [4] (setting [13]), 2.34 ± 0.18. In addition, the “Efficacy (Emax)” value in assay [5] (setting [14]) is 2.34 ± 0.29; in assay [5] (setting [15]), 2.27 ± 0.07. For the same compound, the EC50 in assay [1] (setting [6]) stood at 26 ± 9.12 nM; in assay [1] (setting [7]), 65.4 ± 24.4 nM; in assay [1] (EF1 HA-ER-α E380Q, Antagonist Mode, −E2 (Table 27)), 26 ± 9.12 nM; in assay [2] (setting [8]), 7.14 ± 6.64 nM; in assay [2] (setting [9]), 19 ± 18.2 nM; in assay [2] (EF1 HA-ER-α L536R, Antagonist Mode, −E2 (Table 27)), 7.14 ± 6.64 nM. Moreover, the EC50 is 1.59 ± 0.681 nM in assay [3] (UbC HA-ER-α E380Q, Agonist Mode, −E2, read-out: Potency (EC50; nM)); 4.92 ± 0.671 nM in assay [3] (UbC HA-ER-α E380Q, Antagonist Mode, +E2, read-out: Potency (EC50; nM)); 1.06 ± 0.714 nM in assay [4] (UbC HA-ER-α L536R, Agonist Mode, −E2, read-out: Potency (EC50; nM)); 6.09 ± 4.42 nM in assay [4] (UbC HA-ER-α L536R, Antagonist Mode, +E2, read-out: Potency (EC50; nM)); 1.58 ± 0.955 nM in assay [5] (UbC HA-ER-α Y537N, Agonist Mode, −E2, read-out: Potency (EC50; nM)); 5.03 ± 0.765 nM in assay [5] (UbC HA-ER-α Y537N, Antagonist Mode, +E2, read-out: Potency (EC50; nM)).
For `C[C@]12CC[C@@H]3c4ccc(O)cc4CC[C@H]3[C@@H]1CC[C@@H]2O` [17β-Estradiol], the “Efficacy (Emax)” value in assay [1] (setting [7]) was 5.75 ± 0.17; in assay [2] (setting [8]), 6.93 ± 1.50; in assay [2] (setting [9]), 6.83 ± 1.36; in assay [3] (setting [10]), 7.36 ± 1.07; in assay [3] (setting [11]), 7.69 ± 1.94; in assay [4] (setting [12]) it was 5.72 ± 0.74. The entries for the “Efficacy (Emax)” value in assay [4] (setting [13]) and in assay [5] (setting [15]) were 5.92 ± 0.67 and 6.49 ± 0.97, respectively. In addition, the EC50 in assay [3] (Homo sapiens, MCF7, read-out: Potency (EC50; nM), UbC HA-ER-α E380Q, Agonist Mode, −E2) turned out to be 0.013 ± 0.011 nM; in assay [4] (Homo sapiens, MCF7, read-out: Potency (EC50; nM), UbC HA-ER-α L536R, Agonist Mode, −E2), 0.008 ± 0.006 nM; in assay [5] (Homo sapiens, MCF7, read-out: Potency (EC50; nM), UbC HA-ER-α Y537N, Agonist Mode, −E2), 0.126 ± 0.233 nM.
For `CC/C(=C(/c1ccc(/C=C/C(=O)O)cc1)c1ccc2[nH]ncc2c1)c1ccc(F)cc1Cl` [Compound 1-3, (E)-3-(4-((E)-2-(2-chloro-4-fluorophenyl)-1-(1H-indazol-5-yl)but-1-en-1-yl)phenyl)acrylic acid], the “Percent inhibition compared to vehicle” value in assay [1] (setting [6]) is on record as 49%; in assay [1] (setting [7]), 52%; in assay [2] (setting [8]), 47%; in assay [2] (setting [9]), 45%; in assay [3] (setting [10]), 59%; in assay [3] (setting [11]), 76%. In addition, the “Percent inhibition compared to vehicle” value in assay [4] (setting [12]) is reported as 55%; in assay [4] (setting [13]), 71%; in assay [5] (setting [14]), 61%; in assay [5] (setting [15]), 76%. Moreover, the “Efficacy (Emax)” value in assay [1] (setting [6]) is 3.35 ± 0.07; in assay [1] (setting [7]), 3.00 ± 0.18; in assay [2] (setting [8]), 3.61 ± 0.24; in assay [2] (setting [9]), 3.77 ± 0.48; in assay [3] (setting [10]), 1.74 ± 0.24; in assay [3] (setting [11]) it was 1.72 ± 0.38. For the same compound, the “Efficacy (Emax)” value was determined as 1.73 ± 0.22 in assay [4] (setting [12]), 1.71 ± 0.10 in assay [4] (setting [13]), 1.67 ± 0.15 in assay [5] (setting [14]) and 1.56 ± 0.04 in assay [5] (setting [15]). Also, the EC50 was found to be 18.6 ± 7.11 nM in assay [1] (Homo sapiens, MCF7, EF1 HA-ER-α E380Q, Agonist Mode, −E2); 76.2 ± 21.5 nM in assay [1] (Homo sapiens, MCF7, EF1 HA-ER-α E380Q, Antagonist Mode, +E2); 10.4 ± 6.52 nM in assay [2] (Homo sapiens, MCF7, EF1 HA-ER-α L536R, Agonist Mode, −E2); 15.6 ± 6.9 nM in assay [2] (Homo sapiens, MCF7, EF1 HA-ER-α L536R, Antagonist Mode, +E2); 1.3 ± 0.232 nM in assay [3] (Homo sapiens, MCF7, UbC HA-ER-α E380Q, Agonist Mode, −E2, read-out: Potency (EC50; nM)); 8.38 ± 3.31 nM in assay [3] (Homo sapiens, MCF7, UbC HA-ER-α E380Q, Antagonist Mode, +E2, read-out: Potency (EC50; nM)). Further, the EC50 in assay [4] (Homo sapiens, MCF7, UbC HA-ER-α L536R, Agonist Mode, −E2, read-out: Potency (EC50; nM)) was found to be 0.926 ± 0.428 nM; in assay [4] (Homo sapiens, MCF7, UbC HA-ER-α L536R, Antagonist Mode, +E2, read-out: Potency (EC50; nM)), 6.96 ± 3.76 nM; in assay [5] (Homo sapiens, MCF7, UbC HA-ER-α Y537N, Agonist Mode, −E2, read-out: Potency (EC50; nM)) it was 2.22 ± 0.55 nM; in assay [5] (Homo sapiens, MCF7, UbC HA-ER-α Y537N, Antagonist Mode, +E2, read-out: Potency (EC50; nM)), 9.5 ± 3.61 nM.

The values are drawn from patent US9855270B2, “Methods and compositions for modulating estrogen receptor mutants” (priority 2014, dated 2018).
